Here are results for 83 molecules from PubChem BioAssay AID602211 (Sanford-Burnham Center for Chemical Genomics, 2012).

SMILES strings stand for the structures. The source made the active and inactive calls.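 How the source made its calls: active means mean IC50 at or below 10 µM; inactive means the rest.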 A value given as a limit tells only on which side of the number the result lay.

This test concerns H9c2 cardiomyocytes, H2O2 protection, ATPLite viability, 2 h. As to the kind of experiment: protection of H9c2 cardiomyocytes from H2O2 death, dose response, cell-based, ATPLite luminescence, set 2 (AID 602211).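 Further: potency is for protection so actives keep ATP signal up against peroxide killing.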 In general terms: In ATP-based viability assays light output follows the ATP content of the culture.
As to `COc1ccc(-c2cnc3c(NC=O)cc(-c4cccc(NS(C)(=O)=O)c4)cn23)cc1OC`, the 50% inhibitory concentration (IC50) was 5.59 µM.

For the molecule `O=C(/C=C\c1cn(-c2ccccc2)nc1-c1ccc2c(c1)OCCO2)N1CCOCC1`, the IC50 is 7.49 µM.

On to `COc1ccccc1OP(=O)(Nc1cccnc1)Oc1ccccc1OC`, for which the 50% inhibitory concentration (IC50) was 2.28 µM.

For the molecule `COc1cc2c(cc1OC)CN(c1nc(-c3cccnc3)nc3ccccc13)CC2`, the IC50 was 2.93 µM.

Take `O=C(Nc1ccc2nc(N3CCOCC3)sc2c1)c1cc2ccccc2o1`: the IC50 was 4.75 µM.

With `COc1cccc(-c2cnc3c(NC=O)cc(-c4cccc(NC(C)=O)c4)cn23)c1`, the 50% inhibitory concentration (IC50) was 5.98 µM.

With `COc1ccc(OC)c(/C=N/Nc2nncn2/N=C/c2cc(OC)ccc2OC)c1`, the half-inhibitory concentration (IC50) was 6.17 µM.

`CCOC(=O)C1CCCN(C(=O)CCC(=O)Nc2ccc3nc(N4CCOCC4)cc(C)c3c2)C1` (stereo not drawn): the IC50 is > 79 µM (inactive).

In the case of `CSc1nc2ncc3c(n2n1)CC1c2ccccc2CCN1C3=O` (stereo not drawn), the IC50 was 23 µM (inactive).

In the case of `COc1cc(-c2cc(NC(C)=O)c3ncc(-c4ccccc4)n3c2)cc(OC)c1OC`, the 50% inhibitory concentration (IC50) was 6.75 µM.

For the molecule `CNC(=O)c1ccc(-c2sc3nc(N4CCOCC4)c4c(c3c2N)CCCC4)o1`, the IC50 was 11.6 µM (inactive).

In the case of `COc1ccc2o/c(=N/NC(=O)c3cccs3)c(C(N)=O)cc2c1`, the IC50 was 2.29 µM.

For `COc1cc(C(=O)Nc2ccc(NC(=O)c3cccc(Cl)c3)nc2)cc(OC)c1OC`, the IC50 was 2.96 µM.

Turning to `O=C(Nc1nc(-c2cc(F)ccc2F)cs1)C1=NN(c2ccccc2)C(=O)CC1`, the IC50 was 6.26 µM.

In the case of `COc1cccc(OC)c1C(=O)Nc1cc(C)nn1-c1nc2ccccc2[nH]1`, the concentration for half-maximal inhibition (IC50) was 4.1 µM.

`NC(=O)c1nsc(C(=O)N(c2ccccc2F)C(C(=O)NCc2ccc(F)cc2)c2ccc(O)cc2)c1N` (stereo not drawn): the IC50 is 0.94 µM.

On to `CCCC(=O)Nc1nc2ccc(NC(=O)c3ccc(Br)o3)cc2s1`, for which the IC50 was 15.2 µM (inactive).

On to `COc1ccnc(Oc2ccccc2)c1C(=O)N/C=N/OCc1ccc(F)cc1Cl`, for which the IC50 was > 79 µM (inactive).

Consider `COc1ccc(-n2cc(-c3ccccc3)c3c(N4CCOCC4)ncnc32)cc1`, for which the IC50 is 4.02 µM.

Consider `COc1cc(C(=O)Nc2cc3c(cc2N2CCCCC2)n(C)c(=O)n3C)cc(OC)c1OC`, for which the IC50 is 11.2 µM (inactive).

As for `C[C@H](CO)N1C[C@H](C)[C@@H](CN(C)S(=O)(=O)c2cccs2)Oc2ccc(NC(=O)Nc3ccccc3)cc2C1=O`, the IC50 was 16 µM (inactive).

Take `CCc1nc(N2CCN(C(=O)c3ccco3)CC2)c2oc3ccccc3c2n1`: the IC50 is > 79 µM (inactive).

As for `COc1ccc(CCn2c(=O)c3cccnc3n(Cc3ccc([N+](=O)[O-])cc3)c2=O)cc1OC`, the half-maximal inhibitory concentration (IC50) is 1.22 µM.

Regarding `O=C(CN1CCN(c2ccccn2)CC1)Nc1ccc([N+](=O)[O-])cc1C(=O)Nc1ccccc1F`, the IC50 is 7.08 µM.

Turning to `CCOC(=O)C1=C(CC)Nc2ccccc2N=C1NC(=O)c1ccc(S(=O)(=O)N(C)C)cc1`, the IC50 is 4.8 µM.

Take `COc1ccc(-c2cc(-c3nnc(COC(=O)C4CC4C)o3)c3ccccc3n2)cc1OC` (stereo not drawn): the IC50 was 3.86 µM.

`CCOC(=O)c1cc2c(=O)n3ccccc3nc2n(Cc2ccco2)c1=NC(=O)c1cccnc1`: the IC50 is 19 µM (inactive).

With `CCCNC(=O)c1ccc(N2CCC3(CC2)CC(c2ccccc2)=NO3)c(NC(=O)c2ccco2)c1`, the half-maximal inhibitory concentration (IC50) was 4.21 µM.

With `COc1ccc(OC)c(NC(=O)c2sc3ncnc(N4CCN(c5ccccn5)CC4)c3c2C)c1`, the IC50 is 16.2 µM (inactive).

As to `COc1cc(NC(=O)c2cc3ccccc3cc2OC)ccc1NC(=O)c1cccs1`, the IC50 is 3.59 µM.

For the molecule `C[C@H](CO)N1C[C@H](C)[C@@H](CN(C)S(=O)(=O)c2ccccc2)Oc2ccc(NC(=O)Nc3ccccc3)cc2C1=O`, the IC50 is 16.6 µM (inactive).

As for `CC(C)(C)NC(=O)c1cc(NC(=O)c2cccs2)cc(NC(=O)c2cccs2)c1`, the IC50 is 8.4 µM.

As to `O=C(CN1CCN(Cc2ccccc2)CC1)Nc1ccc([N+](=O)[O-])cc1C(=O)Nc1ccccc1F`, the IC50 was 4.75 µM.

Take `CC(=O)Nc1cc(-c2cccc(NS(C)(=O)=O)c2)cn2c(-c3cccc(C(C)=O)c3)cnc12`: the IC50 was 15 µM (inactive).

Consider `CCn1nc(C(=O)Nc2nc(-c3ccccn3)cs2)c2ccccc2c1=O`, for which the IC50 was 3.37 µM.

Turning to `COc1ccc(-c2cc(C(=O)N(C)Cc3ccc(OC)c(OC)c3OC)c3ccccc3n2)cc1OC`, the IC50 was 4.04 µM.

On to `CC(=O)Nc1cc(C)nn1-c1nc2ccccc2s1`, for which the IC50 is 14.6 µM (inactive).

In the case of `Cn1c(=O)n(CCc2ccccc2)c(=O)c2c1nc1n2CCN1Cc1ccco1`, the IC50 was > 79 µM (inactive).

Take `COc1cc(/C=C/c2nc3ccccc3c(=O)n2-c2ccccc2O)ccc1O`: the IC50 was 9.9 µM.

For `CC1Nc2ncnc(N3CCN(c4ccccc4)CC3)c2N(Cc2ccc(Br)cc2)C1=O` (stereo not drawn), the concentration for half-maximal inhibition (IC50) is 6.65 µM.

Turning to `CCN(CC)c1ccc(C2C(C(=O)OC(C)C)C(=O)CC(C)(O)C2C(=O)OC(C)C)cc1` (stereo not drawn), the IC50 is 7.99 µM.

Turning to `C=CCn1cnc2c(c1=O)c1nc3ccccc3nc1n2/N=C/c1cc(OC)c(OC)c(OC)c1`, the IC50 was 1.09 µM.

Regarding `Cn1c(-n2c(CCCN3C(=O)c4ccccc4C3=O)nc3ccccc3c2=O)nc2ccccc21`, the IC50 is 11.6 µM (inactive).

Turning to `COc1cc(/C=C/c2nc(-c3ccccc3O)n[nH]2)cc(OC)c1OC`, the IC50 was > 79 µM (inactive).

As to `COc1ccc(C(=O)Nc2cccc(NC(=O)c3ccc(OC)c(OC)c3)n2)cc1OC`, the IC50 was 1.49 µM.

With `O=C(NCC(=O)N(Cc1cccs1)C(C(=O)NC1CCCCC1)c1ccco1)c1cccs1` (stereo not drawn), the half-maximal inhibitory concentration (IC50) was 3.23 µM.

With `O=C(COC(=O)c1c2c(nc3ccccc13)/C(=C/c1cccc([N+](=O)[O-])c1)CCC2)NC1CCS(=O)(=O)C1` (stereo not drawn), the IC50 is 4.47 µM.

As for `Cc1cccc(NC(=O)c2nc[nH]c2C(=O)NCC(=O)OCc2ccccc2)c1`, the IC50 was 3.54 µM.

Take `Cc1ccc(C)c(C(=O)Nc2cc(C)nn2-c2nc(C)cc(C)n2)c1`: the IC50 is 65.6 µM (inactive).

Take `CC(=O)Nc1cc(-c2ccc(C(=O)NC3CC3)cc2)cn2c(-c3cccc(C(C)=O)c3)cnc12`: the half-maximal inhibitory concentration (IC50) was 9.83 µM.

Take `CC(=O)Nc1ccc(Nc2nc(-c3sc(NC(C)=O)nc3C)cs2)cc1`: the IC50 is 12.2 µM (inactive).

With `Cc1ccc(NC(=O)c2cc(=O)c3ccccc3o2)cc1S(=O)(=O)N1CCOCC1`, the IC50 is 5.15 µM.

In the case of `Cc1cc(C)c(S(=O)(=O)N2CCN(C(=O)c3cc(=O)[nH]c4ccccc34)CC2)c(C)c1`, the half-inhibitory concentration (IC50) was 2.94 µM.

In the case of `O=C(N/N=C/c1ccc(-c2cccc([N+](=O)[O-])c2)o1)c1ccc([N+](=O)[O-])cc1`, the IC50 was 7 µM.

Regarding `O=c1c2ccccc2nc2c3ccccc3c(NCCO)nn12`, the IC50 was 20.3 µM (inactive).

Take `O=C(CNC(=O)c1nc[nH]c1C(=O)NCc1ccccc1)OCc1ccccc1`: the IC50 was > 79 µM (inactive).

As to `O=C(NC1CCCCC1)C(c1ccc2ncccc2c1)N(Cc1ccco1)C(=O)c1ccc2c(c1)OCCO2` (stereo not drawn), the IC50 was 10.8 µM (inactive).

Take `COc1cc(NC(=O)c2cc3c(C)nc4ccccc4c3o2)cc(OC)c1OC`: the IC50 is 3.36 µM.

As for `CNC(=O)c1ccc(-c2sc3nc(N4CCOCC4)c4c(c3c2N)CC(C)(C)OC4)o1`, the IC50 is 6.13 µM.

For `O=C(NC1CCCCC1)C(c1ccc2ncccc2c1)N(Cc1ccccc1)C(=O)c1ccc2c(c1)OCCO2` (stereo not drawn), the IC50 was 5.54 µM.

In the case of `CCOCc1c(C(=O)NC2=Nc3ccccc3NC(CC)=C2C(=O)OCC)oc2ccccc12`, the IC50 was > 79 µM (inactive).

As for `O=C(NCCc1c[nH]c2ccccc12)C(=O)NCC(c1ccco1)N1CCN(c2ccccc2F)CC1` (stereo not drawn), the IC50 is 5.64 µM.

On to `CCC(=O)Nc1cccc(-c2nnc(-c3cccc(NC(=O)CC)c3)o2)c1`, for which the IC50 is 4.1 µM.

As for `O=C1N[C@H](Cc2ccccc2)COC(=O)[C@@H](Cc2ccc(F)cc2)C/C=C\C[C@H]1CC(=O)N(CCO)Cc1ccccc1`, the IC50 was > 79 µM (inactive).

Turning to `CC1(c2ccccc2)NC(=O)N(CC(=O)Nc2cccc(/C=C/c3ccccn3)c2)C1=O` (stereo not drawn), the IC50 is 9.76 µM.

With `CC(=O)Nc1ccc(NS(=O)(=O)c2cc(-c3n[nH]c(=O)c4ccccc34)ccc2C)cc1`, the IC50 is 3.65 µM.

In the case of `CC(=O)Nc1cccc(-c2cc(NC(C)=O)c3ncc(-c4cccc(C(C)=O)c4)n3c2)c1`, the IC50 was 38.4 µM (inactive).

With `COc1ccc(CSc2nc3ccccc3c(=O)[nH]2)cc1F`, the IC50 is 8.59 µM.

In the case of `Fc1ccc(-n2cc(-c3ccccc3)c3c(N4CCOCC4)ncnc32)cc1`, the concentration for half-maximal inhibition (IC50) was 6.27 µM.

On to `COc1cc(-c2cc(C(=O)OCC(=O)NC3CC3)c3ccccc3n2)cc(OC)c1OC`, for which the half-maximal inhibitory concentration (IC50) was 3.98 µM.

Turning to `CCC(c1nnnn1Cc1ccccc1)N1CCC(n2c(=O)[nH]c3ccccc32)CC1` (stereo not drawn), the IC50 is > 79 µM (inactive).

Consider `COc1cccc(-c2cnc3c(NC(C)=O)cc(-c4cc(OC)c(OC)c(OC)c4)cn23)c1`, for which the IC50 was 3.27 µM.

As to `COc1ccc(-n2c(/C=C/c3ccc(O)cc3)nc3ccccc3c2=O)cc1`, the IC50 was 6.21 µM.

Turning to `O=C(CN(c1ccc2c(c1)OCCO2)S(=O)(=O)c1ccccc1)Nc1ccc2c(c1)OCO2`, the IC50 was 4.32 µM.

For `COc1ccccc1N1CCN(C(=O)c2ccc3nc(-c4ccco4)c(-c4ccco4)nc3c2)CC1`, the IC50 is 7.68 µM.

Take `Cc1ccc(C(=O)Nc2cccc(C(F)(F)F)c2)cc1NC(=O)c1csc(-c2ccncc2)n1`: the IC50 was 5.51 µM.

For `C[C@@H]1CN([C@@H](C)CO)C(=O)c2cc(NC(=O)Nc3ccccc3)ccc2O[C@H]1CN(C)C(=O)Nc1cccc2ccccc12`, the IC50 was 8.2 µM.

For the molecule `CC(C)(C)C(=O)Nc1ccc(C(=O)N/N=C/c2ccccc2OC(=O)c2ccccc2)cc1`, the IC50 was 6.72 µM.

In the case of `CC(=O)Nc1cccc(NC(=O)c2cc(-c3cccnc3)nc3ccc(Cl)cc23)c1`, the half-maximal inhibitory concentration (IC50) was 2.24 µM.

As for `COc1ccccc1OCC(=O)Nc1cccc(-c2nnc(-c3ccco3)o2)c1`, the IC50 is > 79 µM (inactive).

In the case of `COc1cc(-c2cnc3c(NC=O)cc(-c4cccnc4)cn23)cc(OC)c1OC`, the IC50 is 24.6 µM (inactive).

`COc1cc(-c2cc(C(=O)Nc3ccccc3N3CCOCC3)c3ccccc3n2)cc(OC)c1OC`: the concentration for half-maximal inhibition (IC50) is 5.8 µM.

As for `N#Cc1c(-c2ccco2)cc(-c2cccnc2)nc1N`, the IC50 was 11 µM (inactive).

The IC50 is the concentration at which inhibition is half-maximal.
